“Also recorded” adds a separate entry of the source.
Tested on: patients suffering from indolent systemic mastocytosis (ISM) or mast cell activation syndrome (MCAS) or having hypertryptasemia
Assay: Numeric rating scale (NRS) pain score in 15 patients treated with CBD capsules
Assay type: in vivo, human
Conditions: for reduction of pain / average pain score (NRS): 15 patients; for reduction of pain: NRS; for average pain score (NRS): D0 average about 7.2
Procedure: Fifteen patients suffering from indolent systemic mastocytosis (ISM) or mast cell activation syndrome (MCAS) or having hypertryptasemia with no positive result from classic treatments were treated with a daily dose from 15 to 400 mg of cannabidiol (CBD) by capsule.
The pain was measured using numeric rating scale (NRS) pain score, between 0 (no pain) and 10 (worst pain imaginable).

[1] = after one month of treatment (M1)
[2] = after three months of treatment (M3)

SMILES: C=C(C)[C@@H]1CCC(C)=C[C@H]1c1c(O)cc(CCCCC)cc1O [CBD, cannabidiol]
- reduction of pain (M1 versus D0): about 2 points
- reduction of pain (M3 versus D0): about 3 points
- average pain score (NRS) [1]: 5.1
- average pain score (NRS) [2]: 3.8
- relief of pain observed [1]: 13 of 15
- relief of pain observed [2]: 14 of 15
- pain treatment withdrawal (individual patient, other pain treatment stopped under CBD): stop stelara; also recorded: stop NSAID; also recorded: stop nefopam; also recorded: stop memantine,; also recorded: stop opioids; also recorded: stop methadone,; also recorded: stop methadone; also recorded: stop ketamine; also recorded: stop amitriptyline

— patent US20240269154A1, “CANNABIDIOL FOR USE IN THE TREATMENT OF PAIN RESULTING FROM AN INDOLEAMINE 2,3-DIOXYGENASE-1 (IDO1) RELATED DISEASE” (Assistance Publique - Hopitaux de Paris, priority 2021, published 2024)
